# Assay results taken from patent US20110190126A1, “WEED CONTROL METHOD AND HERBICIDAL COMPOSITION” (SYNGENTA CROP PROTECTION, INC., priority 2008, published 2011).
# Tested on: sugarcane
# Assay: Field trials in 1.5 year plant cane: phytotoxicity (% damage) to sugarcane
# Type: in vivo
# Conditions: 200 g/ha
# Protocol: Five field trials are carried out in 1.5 year plant cane to examine the effect on sugarcane of combinations of compound of Formula I with various PS-II inhibiting herbicides. Plot sizes are 20 m^2 and results shown are the average of 3 replicate treatments.
structure (smiles),measurement,value
COCCOCc1nc(C(F)(F)F)ccc1C(=O)C1=C(O)C2CCC(C2)C1=O (stereo not shown) [Formula I],% Damage (Average of three trials).,8%
